Assay results from patent EP2556062B1, “AMIDE DERIVATIVES OF AVENALUMIC ACID, PROCESS FOR PREPARING SAME AND COSMETIC COMPOSITIONS CONTAINING SAME” (Produits Chimiques Auxiliaires et de Synthese, priority 2010, dated 2011).

Key:
[1] = DPPH radical scavenging test (free-radical trapping); format: biochemical; details: DPPH 0,5mM, 37°C, 30 minutes, absorbance at 517 nm; for % inhibition (C=25µM): compound 25µM; for % inhibition (C=80µM): compound 80µM; for % inhibition (C=): compound
Method: Cette étude mesure l'activité antiradicalaire d'un composé par capture du radical DPPH. Ce test est largement utilisé pour étudier la capacité d'un composé à donner un hydrogène.
L'activité se traduit par une décoloration du DPPH (violet). L'absorbance (densité optique DO) a été mesurée à 517 nm au bout de trente minutes sur un spectrophotomètre UV-visible thermostaté à 37°C. Le résultat est exprimé en pourcentage d'inhibition déterminé par la formule : [formula]
Cette activité a été comparée à celle des produits de référence vitamine E, acide férulique et vinylogue de l'acide férulique [dérivé (17)].

[2] = Auto-oxidation by the ferric thiocyanate (FTC) method: AAPH-induced lipid peroxidation of linoleic acid; format: biochemical; details: 25 micromoles; absorbance at 500nm versus time over five hours; activity not superior to that of acide férulique
From the text: Cette méthode met en évidence la capacité de capter le radical peroxyle par le dérivé à tester. La méthode est basée sur une peroxydation lipidique de l'acide linoléique, émulsionné par le Tween 20®.
Cette peroxydation est réalisée par action d'un initiateur de radicaux libres, le dihydrochlorhydrate de 2,2'-azobis(2-amidino)propane (AAPH). Le radical peroxyle formé réagit avec le dérivé à tester et conduit à la formation d'un hydroperoxyde et d'un radical alkoxyle ArO˙. Ce dernier réagit avec le radical peroxyle et permet la formation de produits non radicalaires.
Par ailleurs, les radicaux peroxyle continuent d'oxyder le substrat (l'acide linoléique) pour former également un hydroperoxyde. Cet hydroperoxyde oxyde le fer ferreux présent in situ pour conduire à la formation de fer ferrique Fe^3+ qui se complexe à l'anion thiocyanate.
Le complexe rouge de thiocyanate ferrique formé absorbe à 500nm.
Le degré d'oxydation est quantifié par l'absorbance mesurée. L'activité antioxydante du dérivé à tester est donc la capacité à retarder la peroxydation lipidique. Plus la durée pour atteindre le maximum d'absorbance est longue, plus l'antioxydant est puissant.
Cette étude est réalisée sur une période de cinq heures avec un intervalle de temps d'une heure. Le résultat est exprimé par l'absorbance en fonction du temps. La concentration des molécules dans le milieu est de 25 micromoles.

| SMILES | % inhibition (C=25µM) [1] [%] | % inhibition (C=80µM) [1] [%] | % inhibition (C=) [1] [%] | activité antioxydante [2] |
| --- | --- | --- | --- | --- |
| COc1cc(/C=C/C(=O)O)ccc1O [Acide férulique, reference compound] | 50 | 78 | 61 |  |
| Cc1c(C)c2c(c(C)c1O)CC[C@@](C)(CCC[C@H](C)CCC[C@H](C)CCCC(C)C)O2 [Vit.E, vitamine E, reference compound] | 41 | 92 | 86 |  |
| COC(=O)c1scc(C)c1NC(=O)/C=C/c1ccc(O)c(OC)c1 [compound 3, 3-{[(2E)-3-(4-hydroxy-3-méthoxyphényl)prop-2-ènoyl]amino}-4-méthylthiophène-2-carboxylatede méthyle] | 45 | 72 | 48 | ont une activité antioxydante |
| COc1cc(/C=C/C(=O)Nc2c(C)csc2C(=O)O)ccc1O [compound 4, Acide 3-{[(2E)-3-(4-hydroxy-3-méthoxyphényl)prop-2-ènoyl]amino}-4-méthylthiophène-2-carboxylique] | 41 | 50 | 31 | ont une activité antioxydante |
| COc1cc(/C=C/C=C/C(=O)O)ccc1O [compound 17, Acide (2E,4E)-5-[4-hydroxy-3-méthoxyphényl]penta-2,4-diénoique, reference compound] | 62 | 81 | 65 |  |
| COC(=O)c1scc(C)c1NC(=O)/C=C/C=C/c1ccc(O)c(OC)c1 [compound 21, 3-{[(2E,4E)-5-(4-hydroxy-3-méthoxyphényl)penta-2,4-diènoyl]amino}-4-méthylthiophène-2-carboxylatede méthyle] | 68 | 93 | 74 | ont une activité antioxydante |
| COc1cc(/C=C/C=C/C(=O)Nc2c(C)csc2C(=O)O)ccc1O [compound 22, Acide 3-{[(2E,4E)-5-(4-hydroxy-3-méthoxyphényl)penta-2,4-diènoyl]amino}-4-méthylthiophène-2-carboxylique] | 50 | 73 | 54 | ont une activité antioxydante |
